Reference: PMC6364417, “Kinase inhibitor library screening identifies synergistic drug combinations effective in sensitive and resistant melanoma cells” (Journal of Experimental & Clinical Cancer Research : CR, 2019)

How the values were obtained:
Assay in all cases: Kinase inhibitor library screening, PrestoBlue cell viability, 1 or 10 μM, 72 h
[1] = test system: 501Mel-XP cells (Vemurafenib-resistant)
IGR37 cells (parental) = test system: IGR37 cells (parental)
[2] = test system: IGR37-GP cells (Dabrafenib-resistant)
[3] = test system: A375-XP cells (Vemurafenib-resistant)
501Mel cells (parental) = test system: 501Mel cells (parental)
How it was run: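 Readout: PrestoBlue signal on a monochromator plate reader, given as percent viability relative to untreated controls. Parental and drug-resistant (Vemurafenib XP, Dabrafenib GP) sublines were tested; at least duplicates per line.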

[4] = test system: A375-GP cells (Dabrafenib-resistant)
A375 cells (parental) = test system: A375 cells (parental)
[5] = test system: IGR37-XP cells (Vemurafenib-resistant)
[6] = test system: 501Mel-GP cells (Dabrafenib-resistant)
[7] = IGR37 Parental, 10μΜ, 72 h, in %
[8] = 501Mel Parental, 1μΜ, 72 h, in %
[9] = 501Mel Parental, 10μΜ, 72 h, in %

CN(C)C1CCN(C(=O)c2ccc(NC(=O)Nc3ccc(-c4nc(N5CCOCC5)nc(N5CCOCC5)n4)cc3)cc2)CC1 [PF-05212384 (PKI-587)]
Cell viability in kinase inhibitor library screening, 501Mel XP, 1μΜ ([1]; 501Mel XP, 1μΜ, 72 h, in %): 53.1
Cell viability in kinase inhibitor library screening, 501Mel XP, 10μΜ ([1]; 501Mel XP, 10μΜ, 72 h, in %): 0.9
Cell viability in kinase inhibitor library screening, IGR37 Parental, 1μΜ (IGR37 cells (parental); IGR37 Parental, 1μΜ, 72 h, in %): 35.0
Cell viability in kinase inhibitor library screening, IGR37 Parental, 10μΜ (IGR37 cells (parental); [7]): 14.2
Cell viability in kinase inhibitor library screening, IGR37 GP, 10μΜ ([2]; IGR37 GP, 10μΜ, 72 h): 6.8%
Cell viability in kinase inhibitor library screening, IGR37 GP, 1μΜ ([2]; IGR37 GP, 1μΜ, 72 h, in %): 39.4
Cell viability in kinase inhibitor library screening, A375 XP, 1μΜ ([3]; A375 XP, 1μΜ, 72 h): 33.4
Cell viability in kinase inhibitor library screening, A375 XP, 10μΜ ([3]; A375 XP, 10μΜ, 72 h): 11.6
Cell viability in kinase inhibitor library screening, 501Mel Parental, 1μΜ (501Mel cells (parental); [8]): 22.6
Cell viability in kinase inhibitor library screening, 501Mel Parental, 10μΜ (501Mel cells (parental); [9]): 1.3
Cell viability in kinase inhibitor library screening, A375 GP, 1μΜ ([4]; A375 GP, 1μΜ, 72 h): 34.6
Cell viability in kinase inhibitor library screening, A375 GP, 10μΜ ([4]; A375 GP, 10μΜ, 72 h): 13.9
Cell viability in kinase inhibitor library screening, A375 Parental, 10μΜ (A375 cells (parental); A375 Parental, 10μΜ, 72 h): 13.9
Cell viability in kinase inhibitor library screening, A375 Parental, 1μΜ (A375 cells (parental); A375 Parental, 1μΜ, 72 h): 35.9
Cell viability in kinase inhibitor library screening, IGR37 XP, 10μΜ ([5]; IGR37 XP, 10μΜ, 72 h): 3%
Cell viability in kinase inhibitor library screening, IGR37 XP, 1μΜ ([5]; IGR37 XP, 1μΜ, 72 h, in %): 33.0
Cell viability in kinase inhibitor library screening, 501Mel GP, 1μΜ ([6]; 501Mel GP, 1μΜ, 72 h, in %): 29.3
Cell viability in kinase inhibitor library screening, 501Mel GP, 10μΜ ([6]; 501Mel GP, 10μΜ, 72 h, in %): 2.2

COc1cc(Nc2ncc3c(n2)-c2ccc(Cl)cc2C(c2c(F)cccc2OC)=NC3)ccc1C(=O)O [MLN8237 (Alisertib)]
cell viability (kinase inhibitor library screening) ([1]; 501Mel XP, 1μΜ, 72 h): 67.2%
cell viability (kinase inhibitor library screening) ([1]; 501Mel XP, 10μΜ, 72 h): 49.0%
cell viability (kinase inhibitor library screening) (IGR37 cells (parental); IGR37 Parental, 1μΜ, 72 h): 70.3%
cell viability (kinase inhibitor library screening) (IGR37 cells (parental); IGR37 Parental, 10μΜ, 72 h): 54.5%
cell viability (kinase inhibitor library screening) ([2]; IGR37 GP, 1μΜ, 72 h): 89.7%
cell viability (kinase inhibitor library screening) ([2]; IGR37 GP, 10μΜ, 72 h): 56.0%
cell viability (kinase inhibitor library screening) ([3]; A375 XP, 1μΜ, 72 h): 51.0%
cell viability (kinase inhibitor library screening) ([3]; A375 XP, 10μΜ, 72 h): 50.5%
cell viability (kinase inhibitor library screening) (501Mel cells (parental); 501Mel Parental, 1μΜ, 72 h): 82.2%
cell viability (kinase inhibitor library screening) (501Mel cells (parental); 501Mel Parental, 10μΜ, 72 h): 73.9%
cell viability (kinase inhibitor library screening) ([4]; A375 GP, 1μΜ, 72 h): 42.7%
cell viability (kinase inhibitor library screening) ([4]; A375 GP, 10μΜ, 72 h): 41.7%
cell viability (kinase inhibitor library screening) (A375 cells (parental); A375 Parental, 10μΜ, 72 h): 40.1%
cell viability (kinase inhibitor library screening) (A375 cells (parental); A375 Parental, 1μΜ, 72 h): 43.3%
cell viability (kinase inhibitor library screening) ([5]; IGR37 XP, 1μΜ, 72 h): 86.2%
cell viability (kinase inhibitor library screening) ([5]; IGR37 XP, 10μΜ, 72 h): 31.0%
cell viability (kinase inhibitor library screening) ([6]; 501Mel GP, 1μΜ, 72 h): 82.8%
cell viability (kinase inhibitor library screening) ([6]; 501Mel GP, 10μΜ, 72 h): 52.7%

C=CC(=O)Nc1cccc(Sc2nc(Nc3ccc(N4CCN(C)CC4)cc3)ncc2Cl)c1 [WZ8040]
cell viability, 501Mel XP, 1μΜ ([1]; 501Mel XP, 1μΜ, 72 h, in %): 96.4
cell viability, 501Mel XP, 10μΜ ([1]; 501Mel XP, 10μΜ, 72 h, in %): 0.0442
cell viability, IGR37 Parental, 10μΜ (IGR37 cells (parental); [7]): 0.328
cell viability, IGR37 GP, 10μΜ ([2]; IGR37 GP, 10μΜ, 72 h): 2.1%
cell viability, IGR37 GP, 1μΜ ([2]; IGR37 GP, 1μΜ, 72 h, in %): 90.2
cell viability, A375 XP, 1μΜ ([3]; A375 XP, 1μΜ, 72 h, in %): 104.2
cell viability, A375 XP, 10μΜ ([3]; A375 XP, 10μΜ, 72 h, in %): 0.5
cell viability, 501Mel Parental, 1μΜ (501Mel cells (parental); [8]): 98.5
cell viability, 501Mel Parental, 10μΜ (501Mel cells (parental); [9]): -0.212
cell viability, A375 GP, 1μΜ ([4]; A375 GP, 1μΜ, 72 h, in %): 98.2
cell viability, A375 GP, 10μΜ ([4]; A375 GP, 10μΜ, 72 h, in %): 1.6
cell viability, A375 Parental, 1μΜ (A375 cells (parental); A375 Parental, 1μΜ, 72 h, in %): 97.5
cell viability, A375 Parental, 10μΜ (A375 cells (parental); A375 Parental, 10μΜ, 72 h, in %): 1.4
cell viability, IGR37 XP, 10μΜ ([5]; IGR37 XP, 10μΜ, 72 h): 1.2%
cell viability, IGR37 XP, 1μΜ ([5]; IGR37 XP, 1μΜ, 72 h, in %): 79.2
cell viability, 501Mel GP, 10μΜ ([6]; 501Mel GP, 10μΜ, 72 h, in %): 0.0662

Cc1cccc(-c2[nH]c(C(C)(C)C)nc2-c2ccc3nccnc3c2)n1 [SB 525334]
cell viability (kinase inhibitor library screening) ([1]; 501Mel XP, 1μΜ, in %): 100.5
cell viability (kinase inhibitor library screening) ([1]; 501Mel XP, 10μΜ, in %): 78.5
cell viability (kinase inhibitor library screening) (IGR37 cells (parental); IGR37 Parental, 1μΜ, in %): 104.1
cell viability (kinase inhibitor library screening) (IGR37 cells (parental); IGR37 Parental, 10μΜ, in %): 104.6
cell viability (kinase inhibitor library screening) ([2]; IGR37 GP, 1μΜ, in %): 99.0
cell viability (kinase inhibitor library screening) ([2]; IGR37 GP, 10μΜ, in %): 73.8
cell viability (kinase inhibitor library screening) ([3]; A375 XP, 1μΜ, in %): 109.3
cell viability (kinase inhibitor library screening) ([3]; A375 XP, 10μΜ, in %): 103.4
cell viability (kinase inhibitor library screening) (501Mel cells (parental); 501Mel Parental, 1μΜ, in %): 98.2
cell viability (kinase inhibitor library screening) (501Mel cells (parental); 501Mel Parental, 10μΜ, in %): 90.3
cell viability (kinase inhibitor library screening) ([4]; A375 GP, 1μΜ, in %): 114.6
cell viability (kinase inhibitor library screening) ([4]; A375 GP, 10μΜ, in %): 93.3
cell viability (kinase inhibitor library screening) (A375 cells (parental); A375 Parental, 1μΜ, in %): 112.1
cell viability (kinase inhibitor library screening) (A375 cells (parental); A375 Parental, 10μΜ, in %): 110.1
cell viability (kinase inhibitor library screening) ([5]; IGR37 XP, 1μΜ, in %): 91.6
cell viability (kinase inhibitor library screening) ([5]; IGR37 XP, 10μΜ, in %): 60.0
cell viability (kinase inhibitor library screening) ([6]; 501Mel GP, 1μΜ, in %): 110.1
cell viability (kinase inhibitor library screening) ([6]; 501Mel GP, 10μΜ, in %): 89.8

COc1ccc2c(c1OC)N=C(NC(=O)c1cccnc1)N1CCN=C21 [PIK-90]
Cell viability in kinase inhibitor library screening, 501Mel XP, 1μΜ ([1]; 501Mel XP, 1μΜ, 72 h, in %): 85.8
Cell viability in kinase inhibitor library screening, 501Mel XP, 10μΜ ([1]; 501Mel XP, 10μΜ, 72 h, in %): 43.2
Cell viability in kinase inhibitor library screening, IGR37 Parental, 10μΜ (IGR37 cells (parental); [7]): 82.3
Cell viability in kinase inhibitor library screening, IGR37 GP, 10μΜ ([2]; IGR37 GP, 10μΜ, 72 h): 60.2%
Cell viability in kinase inhibitor library screening, IGR37 GP, 1μΜ ([2]; IGR37 GP, 1μΜ, 72 h, in %): 89.1
Cell viability in kinase inhibitor library screening, A375 XP, 1μΜ ([3]; A375 XP, 1μΜ, 72 h): 91.5
Cell viability in kinase inhibitor library screening, A375 XP, 10μΜ ([3]; A375 XP, 10μΜ, 72 h): 58.7
Cell viability in kinase inhibitor library screening, 501Mel Parental, 1μΜ (501Mel cells (parental); [8]): 97.1
Cell viability in kinase inhibitor library screening, 501Mel Parental, 10μΜ (501Mel cells (parental); [9]): 71.7
Cell viability in kinase inhibitor library screening, A375 GP, 1μΜ ([4]; A375 GP, 1μΜ, 72 h): 90.1
Cell viability in kinase inhibitor library screening, A375 GP, 10μΜ ([4]; A375 GP, 10μΜ, 72 h): 52.7
Cell viability in kinase inhibitor library screening, A375 Parental, 10μΜ (A375 cells (parental); A375 Parental, 10μΜ, 72 h): 58.0
Cell viability in kinase inhibitor library screening, A375 Parental, 1μΜ (A375 cells (parental); A375 Parental, 1μΜ, 72 h): 94.8
Cell viability in kinase inhibitor library screening, IGR37 XP, 10μΜ ([5]; IGR37 XP, 10μΜ, 72 h): 19.4%
Cell viability in kinase inhibitor library screening, IGR37 XP, 1μΜ ([5]; IGR37 XP, 1μΜ, 72 h, in %): 85.5
Cell viability in kinase inhibitor library screening, 501Mel GP, 1μΜ ([6]; 501Mel GP, 1μΜ, 72 h, in %): 98.4
Cell viability in kinase inhibitor library screening, 501Mel GP, 10μΜ ([6]; 501Mel GP, 10μΜ, 72 h, in %): 50.5

CNC(=O)CN1CCC(Oc2cc3c(Nc4cccc(Cl)c4F)ncnc3cc2OC)CC1 [AZD8931]
viability at 1 µM ([1]; Homo sapiens, 72 h, read-out: cell viability, 501Mel XP, 1μΜ): 94.5%
viability at 10 µM ([1]; Homo sapiens, 72 h, read-out: cell viability, 501Mel XP, 10μΜ): 68.3%
viability at 1 µM (IGR37 cells (parental); Homo sapiens, IGR-37, 72 h, read-out: cell viability, IGR37 Parental, 1μΜ): 96.3%
viability at 10 µM (IGR37 cells (parental); Homo sapiens, IGR-37, 72 h, read-out: cell viability, IGR37 Parental, 10μΜ): 98.9%
viability at 1 µM ([2]; Homo sapiens, IGR-37, 72 h, read-out: cell viability, IGR37 GP, 1μΜ): 90.4%
viability at 10 µM ([2]; Homo sapiens, IGR-37, 72 h, read-out: cell viability, IGR37 GP, 10μΜ): 78%
viability at 1 µM ([3]; Homo sapiens, A-375, 72 h, read-out: cell viability, A375 XP, 1μΜ): 96.5%
viability at 10 µM ([3]; Homo sapiens, A-375, 72 h, read-out: cell viability, A375 XP, 10μΜ): 86%
viability at 1 µM (501Mel cells (parental); Homo sapiens, 72 h, read-out: cell viability, 501Mel Parental, 1μΜ): 90.5%
viability at 10 µM (501Mel cells (parental); Homo sapiens, 72 h, read-out: cell viability, 501Mel Parental, 10μΜ): 86%
viability at 1 µM ([4]; Homo sapiens, A-375, 72 h, read-out: cell viability, A375 GP, 1μΜ): 103%
viability at 10 µM ([4]; Homo sapiens, A-375, 72 h, read-out: cell viability, A375 GP, 10μΜ): 74.8%
viability at 1 µM (A375 cells (parental); Homo sapiens, A-375, 72 h, read-out: cell viability, A375 Parental, 1μΜ): 96.7%
viability at 10 µM (A375 cells (parental); Homo sapiens, A-375, 72 h, read-out: cell viability, A375 Parental, 10μΜ): 83.8%
viability at 1 µM ([5]; Homo sapiens, IGR-37, 72 h, read-out: cell viability, IGR37 XP, 1μΜ): 71.9%
viability at 10 µM ([5]; Homo sapiens, IGR-37, 72 h, read-out: cell viability, IGR37 XP, 10μΜ): 50%
viability at 1 µM ([6]; Homo sapiens, 72 h, read-out: cell viability, 501Mel GP, 1μΜ): 100%
viability at 10 µM ([6]; Homo sapiens, 72 h, read-out: cell viability, 501Mel GP, 10μΜ): 79.7%
